Experiment [1] deals with p53. Nature of the experiment: p53 activation (Western blot of p53 and p21) in young IMR90 cells. The experiment is classed as cell-based, human. The settings on record: 20 μM for 48 hours. From the text:
After the treatment, proteins were extracted from the cells to carry out Western blotted.

Experiment [2] relates to BIM gene. As to the kind of experiment: BIM gene expression in Ras-induced senescent IMR90 cells. Format: cell-based, human. The settings on record: senescent (OIS) IMR90 cells; 48 hours. As to the method:
An oncogenic Ras was introduced into young cells (within 1 month of continuous culture) of IMR90 cells to induce senescent cells (OIS).
An oncogenic Ras was introduced into young cells (within 1 month of continuous culture) of IMR90 cells to induce senescent cells (OIS). The senescent cells were transfected with an HIF-2α-specific siRNA (SEQ ID NO: 9) to knock down HIF-2α. After that, the expression of the BIM gene, which is an apoptosis-inducing gene, was analyzed (FIG. 26).

Experiment [3] relates to glycolytic metabolism. As to the kind of experiment: Glycolytic metabolism (glucose consumption, lactate production) in etoposide-induced senescent IMR90 cells. The experiment is classed as cell-based, human. The settings on record: 20 μM or 40 μM for 48 hours. As for the experimental part: Next, young cells (within 1 month of continuous culture) of the IMR90 cells were treated with 100 μM etoposide for 48 hours to acquire senescent cells. […] After the nutlin treatment, the medium was collected, and glucose consumption was evaluated and lactate production was measured. The lactate level is calculated as a value (μmol/mg/h) obtained by measuring the amount of lactate secreted into the medium per hour (μmol/h) and correcting the same by the total cell protein (mg) and is expressed as a value relative to the actual value on day 0. The glucose consumption is calculated as a value (μmol/mg/h) obtained by measuring the amount of glucose decreased from the medium per hour (μmol/h) and correcting the same by the total cell protein (mg) and is expressed as a value relative to the actual value on day 0. Glucose and lactate were measured by using a Glucose assay kit (BioVision) (upper diagram in FIG. 8) and a Lactate assay kit (BioVision) (lower diagram in FIG. 8), respectively.

The test system of experiment [4] is Twenty-month-old C57BL/6 mice. Nature of the experiment: Nutlin 3b administration to aged mice for 3 months. Format: in vivo, mouse. An excerpt:
The vehicle group was given a solvent alone on the same schedule.

The target in experiment [5] is T1, PGAM-Chk1 binding (Homo sapiens, UniProt O14757+P18669).
T1 construct: endogenous in cells; host or cells: IMR90 human primary fibroblasts made senescent by retroviral oncogenic Ras
T1 sequence (P18669 2-254 limits assumed): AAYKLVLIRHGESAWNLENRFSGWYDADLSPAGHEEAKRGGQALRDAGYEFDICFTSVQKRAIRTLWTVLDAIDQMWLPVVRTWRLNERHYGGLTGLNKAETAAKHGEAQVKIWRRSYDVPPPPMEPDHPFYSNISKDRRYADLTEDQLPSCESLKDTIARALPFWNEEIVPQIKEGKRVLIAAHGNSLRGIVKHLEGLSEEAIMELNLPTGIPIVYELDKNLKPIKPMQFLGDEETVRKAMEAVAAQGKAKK
T1 sequence (O14757 1-476): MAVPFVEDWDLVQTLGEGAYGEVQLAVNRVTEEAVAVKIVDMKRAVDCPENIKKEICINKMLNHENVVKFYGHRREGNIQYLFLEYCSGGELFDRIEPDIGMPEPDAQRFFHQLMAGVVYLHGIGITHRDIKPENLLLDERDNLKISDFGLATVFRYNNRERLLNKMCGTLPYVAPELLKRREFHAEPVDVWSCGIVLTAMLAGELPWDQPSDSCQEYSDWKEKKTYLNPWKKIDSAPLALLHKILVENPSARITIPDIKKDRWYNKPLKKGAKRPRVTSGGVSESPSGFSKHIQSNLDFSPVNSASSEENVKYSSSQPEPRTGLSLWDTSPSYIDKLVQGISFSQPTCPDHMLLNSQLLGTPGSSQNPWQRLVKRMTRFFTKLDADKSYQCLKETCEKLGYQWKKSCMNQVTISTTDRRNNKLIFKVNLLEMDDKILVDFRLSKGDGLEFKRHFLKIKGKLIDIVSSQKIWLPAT
Nature of the experiment: PGAM-Chk1 binding by anti-Chk1 immunoprecipitation and anti-PGAM Western blotting in Ras-induced senescent IMR90 cells. Format: cell-based. The settings on record: 20 μM or 40 μM for 48 hours, then MG132 6 hours. As to the method:
Human primary fibroblasts, IMR90 cells, were obtained from the JCRB Cell Bank. An oncogenic Ras mutation was retrovirally introduced into young cells (within 1 month of continuous culture) of the IMR90 cells to induce cellular senescence. […] After that, these cells were treated with MG132 for 6 hours, and cell lysates were prepared. The obtained cell lysates were immunoprecipitated with an anti-Chk1 antibody. The resulting immunoprecipitate was used for Western blotting with an anti-PGAM antibody to evaluate PGAM-Chk1 binding.
Next, in the same manner as above, IMR90 cells were used to prepare stress-induced senescent cells by introducing an oncogenic mutated Ras gene. The senescent cells were transfected with an RSK1 siRNA (SEQ ID NO: 7) or a control to knock down RSK1. The resulting cells were collected, and proteins were extracted. The resulting protein extract was immunoprecipitated with an anti-Chk1 antibody. The resulting immunoprecipitate was used for Western blotting with an anti-PGAM antibody to evaluate PGAM-Chk1 binding.
On the technique in general: A western blot detects proteins with antibodies after separation by electrophoresis.

For experiment [6], the system named is aged C57BL/6 mice. Nature of the experiment: Nutlin 3b administration to aged mice for 2 months, RT-PCR of senescence and inflammation markers. The experiment is classed as in vivo, mouse. The settings on record: 90 weeks, 11.63 mg/kg intraperitoneal once a week for 2 months. As to the method: Specifically, 16 aged C57BL/6 mice at 90 weeks of age were provided. The mice were divided into two groups (control: 8 mice, agent group: 8 mice), and intraperitoneal injection administration once a week was continued for 2 months. […] One week after the end of the last administration, all mice were dissected, and RNA was extracted from each organ. Senescence markers and inflammation markers were evaluated by RT-PCR.

The subject of experiment [7] is caspase-3. As to the kind of experiment: Apoptosis by Western blotting of fragmented caspase-3 in young and senescent IMR90 cells. The settings on record: different concentrations for 72 hours. The experiment is classed as cell-based, human. An excerpt:
Ras gene with oncogenic mutation was introduced into young cells (within 1 month of continuous culture) of IMR90 cells by retroviral infection to acquire stress senescent cells.

Where [8] appears, read: 11.62 mg/kg intraperitoneal once a week for 3 months.

In the case of `COc1ccc(C2=N[C@H](c3ccc(Cl)cc3)[C@H](c3ccc(Cl)cc3)N2C(=O)N2CCNC(=O)C2)c(OC(C)C)c1` [nutlin 3b], in experiment [1], the “protein level of p21” value is listed as “almost unchanged” and the “protein level of p53” value is recorded as “almost unchanged”. Moreover, in experiment [2], the “expression of the apoptosis-inducing gene BIM” value is “increased”. In experiment [3], the glucose consumption result is recorded as “suppressed in a dose-dependent manner” and the lactate production entry is given as “suppressed in a dose-dependent manner”. In experiment [4] (setting [8]), the “lactate level (plasma)” value was “improved”, the “liver function marker plasma albumin level” value is “improved”, the “muscle strength (wire hang test)” value is given as “improved” and the “renal function marker plasma BUN” value is on record as “improved”. Moreover, in experiment [4] (setting [8]), the “renal function marker plasma creatinine” value is given as “improved”. Further, in experiment [4] (11.62 mg/kg once a week for 3 months), the “degree of cellular senescence in adipose tissue (SA ß-Gal staining)” value is reported as “improved”. In addition, the “p21-positive cells in the liver” value in experiment [4] (histochemical analysis, 11.62 mg/kg once a week for 3 months) is given as “significantly decreased”. Further, in experiment [4] (liver mRNA, 11.62 mg/kg once a week for 3 months), the “SASP factors (IL6, CXCL1, TNFα, and CCL5)” value is “reductions”. For the same molecule, the “F4/F80-positive cells (macrophage infiltration)” value in experiment [4] (liver, 11.62 mg/kg once a week for 3 months) is “reduced”. The “PGAM-Chk1 binding (interaction)” value in experiment [5] is “inhibit PGAM-Chk1 interaction to the same extent”. In experiment [6], the “inflammatory markers (RT-PCR, organs)” value is “reduced” and the “senescence markers (RT-PCR, organs)” value is reported as “reduced”. Further, the caspase-3 fragmentation result in experiment [7] (Ras-induced senescent IMR90 cells) is reported as “dose-dependent fragmentation of caspase 3”. The caspase-3 fragmentation entry in experiment [7] (young IMR90 cells) is listed as “did not cause caspase-3 fragmentation”.

The values are drawn from patent US20250003952A1, “SENOLYTIC DRUG SCREENING METHOD AND SENOLYTIC DRUG” (KYOTO UNIVERSITY, priority 2021, published 2025).
